Reference: patent US10259782B2, “ROR gamma (RORγ) modulators” (LEAD PHARMA HOLDING B.V., priority 2015, dated 2019)

Target: T1, RORγ (Homo sapiens, UniProt P51449)
T1 construct: expressed in transfected cells; host or cells: 293FT cells (Invitrogen), expression vector pFN26A (Promega)
T1 sequence (P51449 269-508 limits assumed): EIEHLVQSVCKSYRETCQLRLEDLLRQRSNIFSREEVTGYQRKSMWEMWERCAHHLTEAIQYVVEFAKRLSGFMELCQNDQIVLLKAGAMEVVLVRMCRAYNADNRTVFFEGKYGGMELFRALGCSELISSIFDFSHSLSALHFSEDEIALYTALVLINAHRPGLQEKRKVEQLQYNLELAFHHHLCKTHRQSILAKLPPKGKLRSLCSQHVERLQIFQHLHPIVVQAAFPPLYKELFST
Experiment: RORγ GAL4 reporter gene assay (luciferase readout, 293FT cells)
Format: cell-based
Conditions: inhibition of RORγ (GAL4-RORγ-LBD) in transfected 293FT cells, luciferase signal, overnight incubation; read-out: mean pIC50 (converted)
Method: RORγ GAL4 Reporter Gene Assay
Example inhibitors 1-47 were tested for their ability to inhibit RORγ activity in a RORγ GAL4 reporter gene assay. The assay procedure and results are described below.
RORγ GAL4 Reporter Gene Assay Description
A GAL4 one-hybrid reporter system employing luciferase readout was established to determine inhibition of RORγ in 293FT cells. The RORγ ligand-binding domain (LBD) was fused to the yeast GAL4 DNA binding domain (DBD) and placed under the control of the human cytomegalovirus (CMV) immediate early promoter, using expression vector pFN26A (Promega) and standard recombinant DNA cloning methods. To serve as a control in the assay, a similar vector was generated in which the GAL4-DBD was fused to Herpes simplex virus protein 16 (VP16), a constitutive transcriptional activator.
To monitor the inhibitory effect of compounds on RORγ, a transcriptional reporter construct was used. The pGL4.35 vector (Promega) contains nine copies of the GAL4 Upstream Activator Sequence (UAS). This sequence drives the transcription of the luciferase reporter gene luc2P in response to binding of a fusion protein containing the GAL4 DNA binding domain, as for example expressed by the GAL4-RORγ-LBD and GAL4-VP16 expression vectors described above. To allow a GAL4 fusion protein to drive the expression of the luciferase reporter, the pGL4.35 expression vector and the appropriate GAL4 fusion protein expression vector were bulk transfected in the 293FT cells using standard transfection techniques.
The day after transfection, cells were plated into 96 well plates, test compound was added and the plates were incubated overnight. Subsequently, the firefly luciferase activity was quantified using luciferase detection reagent and luminescence readout.
Detailed Assay Description
293FT cells (Invitrogen) were transfected with a GAL4 fusion protein expression vector (as described above) and the transcriptional reporter construct (pGL4.35, Promega). 60 μL of TransIT-293 transfection reagent (Mirus Bio) was added drop wise to 1500 μl Opti-MEM I Reduced Serum Medium (Invitrogen) and incubated at room temperature (RT) for 5 to 20 minutes. 1500 μL of this reagent mixture was added to 5 μg of GAL4 fusion protein expression vector and 5 μg of the transcriptional reporter construct, and incubated at RT for 20 minutes.
To harvest 293FT cells from a T75 flask, first the culture medium was taken off the cells. Subsequently, the cells were washed with Phosphate Buffered Saline (PBS) (Lonza), after which the PBS was removed. To dissociate the cells, 1 ml of TrypLE Express (Invitrogen) was added to the flask, followed by incubation at RT until the cells visually started to detach. Cells were collected in 5 mL of assay medium (DMEM culture medium (Lonza), 10% dialyzed FBS (Invitrogen) and Pen/Strep (Lonza)) to achieve a single cell suspension. 10×10^6 cells were spun down and re-suspended in 10 mL of assay medium. Subsequently, the cell suspension was added to the transfection mix tube, and then transferred as a whole to a T75 flask (Greiner), followed by overnight (16-24 hours) incubation at 37° C. and 5% CO2.
For compound screening, the cells were harvested (as described above) and counted. 13×10^6 cells were spun down, the supernatant was aspirated and the cells were re-suspended in 17.3 mL of assay medium obtaining a cell suspension of 0.75×10^6 cells/mL. 80 μL of cell suspension (60,000 cells) was plated per well into a white, flat bottom, tissue culture treated, 96 well screening plates (Greiner).
Test compounds were diluted, starting from a 10 mM dimethylsulf oxide (DMSO) stock solution, to serial dilutions in DMSO at 500× the final test concentration. Subsequently, these solutions were diluted to 5× the final test concentration in two 10-fold-dilution steps in assay medium. The final DMSO concentration of the 5× test compound solution was 1%. […]

Structure (SMILES) | IC50
O=C(Cc1ccc(S(=O)(=O)CC2CC2)cc1)Nc1cc(-c2ccccc2)c(C(=O)c2ccccc2)s1 [Example 27, N-(5-benzoyl-4-phenylthiophen-2-yl)-2-(4-cyclopropylmethanesulfonylphenyl)acetamide] | ≤ 100 nM
O=C(Cc1ccc(S(=O)(=O)CC2CC2)cc1)Nc1ccc(-c2ccccc2OC(F)(F)F)c(Cl)c1 [Example 28, N-{3-chloro-4-[2-(trifluoromethoxy)phenyl]phenyl}-2-(4-cyclopropylmethanesulfonylphenyl)acetamide] | ≤ 100 nM
Cc1cc(NC(=O)Cc2ccc(S(=O)(=O)CC3CC3)cc2)ccc1-c1ccccc1OC(F)(F)F [Example 29, 2-(4-cyclopropylmethanesulfonylphenyl)-N-{3-methyl-4-[2-(trifluoromethoxy)phenyl]phenyl}acetamide] | ≤ 100 nM
O=C(Cc1ccc(S(=O)(=O)CC2CC2)cc1)Nc1cc(Cl)c(-c2ccccc2OC(F)(F)F)c(Cl)c1 [Example 30, 2-(4-cyclopropylmethanesulfonylphenyl)-N-{3,5-dichloro-4-[2-(trifluoromethoxy)phenyl]phenyl}acetamide] | ≤ 100 nM
Cc1cc(NC(=O)Cc2ccc(S(=O)(=O)CC3CC3)cc2)ncc1-c1ccccc1OC(F)(F)F [Example 31, 2-(4-cyclopropylmethanesulfonylphenyl)-N-{4-methyl-5-[2-(trifluoromethoxy)phenyl]pyridin-2-yl}acetamide] | ≤ 100 nM
Cc1nc(NC(=O)Cc2ccc(S(=O)(=O)CC3CC3)cc2)ccc1-c1ccccc1OC(F)(F)F [Example 32, 2-(4-cyclopropylmethanesulfonylphenyl)-N-{6-methyl-5-[2-(trifluoromethoxy)phenyl]pyridin-2-yl}acetamide] | ≤ 100 nM
O=C(Cc1ccc(S(=O)(=O)NC2CC2)cc1)Nc1ccc(-c2ccccc2OC(F)(F)F)c(Cl)c1 [Example 33, N-{3-chloro-4-[2-(trifluoromethoxy)phenyl]phenyl}-2-[4-(cyclopropylsulfamoyl)phenyl]acetamide] | ≤ 100 nM
Cc1nc(NC(=O)Cc2ccc(S(=O)(=O)NC3CC3)cc2)ccc1-c1ccccc1OC(F)(F)F [Example 34, 2-[4-(cyclopropylsulfamoyl)phenyl]-N-{6-methyl-5-[2-(trifluoromethoxy)phenyl]pyridin-2-yl}acetamide] | ≤ 100 nM
Cc1cc(NC(=O)Cc2ccc(S(=O)(=O)NC3CC3)cc2)ncc1-c1ccccc1OC(F)(F)F [Example 35, 2-[4-(cyclopropylsulfamoyl)phenyl]-N-{4-methyl-5-[2-(trifluoromethoxy)phenyl]pyridin-2-yl}acetamide] | ≤ 1000 nM
Cc1cc(NC(=O)Cc2ccc(S(=O)(=O)NC3CC3)cc2)ccc1-c1ccccc1OC(F)(F)F [Example 36, 2-[4-(cyclopropylsulfamoyl)phenyl]-N-{3-methyl-4-[2-(trifluoromethoxy)phenyl]phenyl}acetamide] | ≤ 100 nM

More lines, now with the values ahead:

IC50 | Structure (SMILES)
≤ 100 nM | Cc1cc(NC(=O)Cc2ccc(S(=O)(=O)CC3CC3)cc2)nc(C)c1-c1ccccc1OC(F)(F)F [Example 37, 2-(4-cyclopropylmethanesulfonylphenyl)-N-{4,6-dimethyl-5-[2-(trifluoromethoxy)phenyl]pyridin-2-yl}acetamide]
≤ 1000 nM | Cc1ccn(-c2ccc(NC(=O)Cc3ccc(S(=O)(=O)CC4CC4)cc3)cc2)n1 [Example 40, 2-(4-cyclopropylmethanesulfonylphenyl)-N-[4-(3-methyl-1H-pyrazol-1-yl)phenyl]acetamide]
≤ 1000 nM | Cc1ccnn1-c1ccc(NC(=O)Cc2ccc(S(=O)(=O)CC3CC3)cc2)cc1 [Example 41, 2-(4-cyclopropylmethanesulfonylphenyl)-N-[4-(5-methyl-1H-pyrazol-1-yl)phenyl]acetamide]
≤ 1000 nM | Cc1cnn(-c2ccc(NC(=O)Cc3ccc(S(=O)(=O)CC4CC4)cc3)cc2)c1 [Example 42, 2-(4-cyclopropylmethanesulfonylphenyl)-N-[4-(4-methyl-1H-pyrazol-1-yl)phenyl]acetamide]
≤ 1000 nM | O=C(Cc1ccc(S(=O)(=O)CC2CC2)cc1)Nc1ccc(-c2cnco2)cc1 [Example 43, 2-(4-cyclopropylmethanesulfonylphenyl)-N-[4-(1,3-oxazol-5-yl)phenyl]acetamide]
≤ 1000 nM | O=C(Cc1ccc(S(=O)(=O)CC2CC2)cc1)Nc1ccc(-n2cccn2)cc1 [Example 44, 2-(4-cyclopropylmethanesulfonylphenyl)-N-[4-(1H-pyrazol-1-yl)phenyl]acetamide]
≤ 1000 nM | O=C(Cc1ccc(S(=O)(=O)CC2CC2)cc1)Nc1ccc(-n2cncn2)cc1 [Example 46, 2-(4-cyclopropylmethanesulfonylphenyl)-N-[4-(1H-1,2,4-triazol-1-yl)phenyl]acetamide]
≤ 1000 nM | O=C(Cc1ccc(S(=O)(=O)CC2CC2)cc1)Nc1ccc(-c2ncon2)cc1 [Example 47, 2-(4-cyclopropylmethanesulfonylphenyl)-N-[4-(1,2,4-oxadiazol-3-yl)phenyl]acetamide]
